Paper PMC3961306, “Comparison of the Cancer Gene Targeting and Biochemical Selectivities of All Targeted Kinase Inhibitors Approved for Clinical Use” (PLoS ONE, 2014)

Assays:
Test in all cases: Kinase profiling in a biochemical assay panel (mobility shift assays and ELISA), %-inhibition at 1 μM; selectivity entropy
[1] = biological target: panel of more than 300 wild-type and mutant kinases (313 kinase panel) (Homo sapiens, UniProt P05771)
[2] = biological target: panel of more than 300 wild-type and mutant kinases (313 kinase panel) (Homo sapiens, UniProt P07949, Y791F)
panel of more than 300 wild-type and mutant kinases (313 kinase panel) (Homo sapiens, UniProt P07949, Y791F), sequence (P07949 29-1114 Y791F): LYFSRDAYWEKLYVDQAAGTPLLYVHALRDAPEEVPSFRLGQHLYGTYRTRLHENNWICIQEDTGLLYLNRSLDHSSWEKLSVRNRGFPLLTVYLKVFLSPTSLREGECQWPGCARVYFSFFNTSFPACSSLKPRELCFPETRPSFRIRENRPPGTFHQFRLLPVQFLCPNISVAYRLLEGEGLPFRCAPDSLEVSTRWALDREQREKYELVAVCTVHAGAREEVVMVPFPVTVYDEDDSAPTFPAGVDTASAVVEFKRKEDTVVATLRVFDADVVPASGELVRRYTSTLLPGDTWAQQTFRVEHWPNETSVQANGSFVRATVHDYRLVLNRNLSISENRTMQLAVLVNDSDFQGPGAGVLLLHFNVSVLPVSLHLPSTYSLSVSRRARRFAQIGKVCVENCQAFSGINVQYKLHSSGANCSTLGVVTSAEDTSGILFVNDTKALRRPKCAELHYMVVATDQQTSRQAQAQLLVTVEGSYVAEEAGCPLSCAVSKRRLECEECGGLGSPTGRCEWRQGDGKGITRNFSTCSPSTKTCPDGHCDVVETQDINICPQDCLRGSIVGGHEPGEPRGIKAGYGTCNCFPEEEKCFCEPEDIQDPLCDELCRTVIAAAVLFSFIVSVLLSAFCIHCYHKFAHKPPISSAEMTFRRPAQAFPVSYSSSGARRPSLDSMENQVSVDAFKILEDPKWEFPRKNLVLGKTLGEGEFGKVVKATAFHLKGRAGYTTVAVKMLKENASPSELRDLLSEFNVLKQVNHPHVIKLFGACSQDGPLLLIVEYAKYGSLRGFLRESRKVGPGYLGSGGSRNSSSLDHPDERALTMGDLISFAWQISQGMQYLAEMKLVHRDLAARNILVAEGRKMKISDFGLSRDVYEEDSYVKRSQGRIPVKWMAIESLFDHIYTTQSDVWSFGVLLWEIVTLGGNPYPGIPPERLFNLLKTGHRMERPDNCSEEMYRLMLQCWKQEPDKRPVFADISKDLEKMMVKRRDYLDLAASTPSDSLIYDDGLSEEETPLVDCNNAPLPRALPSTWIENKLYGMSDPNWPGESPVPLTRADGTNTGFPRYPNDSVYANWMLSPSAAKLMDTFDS

[3] = biological target: panel of more than 300 wild-type and mutant kinases (313 kinase panel) (Homo sapiens, UniProt P09769)
[4] = biological target: panel of more than 300 wild-type and mutant kinases (313 kinase panel) (Homo sapiens, UniProt P16591)
panel of more than 300 wild-type and mutant kinases (313 kinase panel) (Homo sapiens, UniProt P16591), sequence (P16591 whole entry, change not shown): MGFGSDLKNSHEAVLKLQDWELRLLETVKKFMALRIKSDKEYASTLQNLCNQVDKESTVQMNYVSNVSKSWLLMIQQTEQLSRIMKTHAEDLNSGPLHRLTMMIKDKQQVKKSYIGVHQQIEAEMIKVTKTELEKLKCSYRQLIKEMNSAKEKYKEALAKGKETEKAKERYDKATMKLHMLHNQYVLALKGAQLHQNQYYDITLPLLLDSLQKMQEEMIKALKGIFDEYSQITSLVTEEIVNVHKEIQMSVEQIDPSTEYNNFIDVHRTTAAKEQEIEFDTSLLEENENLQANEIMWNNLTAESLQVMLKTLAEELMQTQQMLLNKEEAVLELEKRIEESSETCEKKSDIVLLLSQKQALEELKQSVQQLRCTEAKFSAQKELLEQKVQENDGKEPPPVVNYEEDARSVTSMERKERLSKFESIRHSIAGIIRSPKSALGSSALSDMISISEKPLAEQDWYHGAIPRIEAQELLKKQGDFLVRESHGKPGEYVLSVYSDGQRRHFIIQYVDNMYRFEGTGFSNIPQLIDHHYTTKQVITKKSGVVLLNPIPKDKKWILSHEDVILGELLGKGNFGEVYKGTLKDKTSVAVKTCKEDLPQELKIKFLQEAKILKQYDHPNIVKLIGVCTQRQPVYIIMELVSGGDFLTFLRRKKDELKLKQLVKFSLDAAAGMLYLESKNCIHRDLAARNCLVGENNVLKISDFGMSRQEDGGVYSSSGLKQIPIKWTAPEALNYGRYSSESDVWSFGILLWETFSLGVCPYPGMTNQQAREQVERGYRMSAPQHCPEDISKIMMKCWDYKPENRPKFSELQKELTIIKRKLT

[5] = biological target: T1, panel of more than 300 wild-type and mutant kinases (313 kinase panel) (Homo sapiens, UniProt P42681)
T1 sequence (P42681 1-527): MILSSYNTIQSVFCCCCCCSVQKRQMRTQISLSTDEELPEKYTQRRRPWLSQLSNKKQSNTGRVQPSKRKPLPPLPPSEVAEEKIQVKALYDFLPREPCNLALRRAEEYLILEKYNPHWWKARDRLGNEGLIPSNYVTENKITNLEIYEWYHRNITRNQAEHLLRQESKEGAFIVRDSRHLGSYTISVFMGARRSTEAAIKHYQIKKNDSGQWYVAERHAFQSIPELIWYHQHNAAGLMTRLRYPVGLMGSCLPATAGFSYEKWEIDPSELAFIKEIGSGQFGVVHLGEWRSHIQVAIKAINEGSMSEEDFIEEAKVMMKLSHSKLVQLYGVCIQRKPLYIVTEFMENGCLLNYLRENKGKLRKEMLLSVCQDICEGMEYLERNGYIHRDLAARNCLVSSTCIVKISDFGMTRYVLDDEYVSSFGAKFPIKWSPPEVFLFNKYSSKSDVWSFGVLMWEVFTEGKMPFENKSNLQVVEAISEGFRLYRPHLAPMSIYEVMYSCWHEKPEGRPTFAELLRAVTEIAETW

[6] = biological target: T2, panel of more than 300 wild-type and mutant kinases (313 kinase panel) (Homo sapiens, UniProt P52333)
T2 sequence (P52333 1-1124): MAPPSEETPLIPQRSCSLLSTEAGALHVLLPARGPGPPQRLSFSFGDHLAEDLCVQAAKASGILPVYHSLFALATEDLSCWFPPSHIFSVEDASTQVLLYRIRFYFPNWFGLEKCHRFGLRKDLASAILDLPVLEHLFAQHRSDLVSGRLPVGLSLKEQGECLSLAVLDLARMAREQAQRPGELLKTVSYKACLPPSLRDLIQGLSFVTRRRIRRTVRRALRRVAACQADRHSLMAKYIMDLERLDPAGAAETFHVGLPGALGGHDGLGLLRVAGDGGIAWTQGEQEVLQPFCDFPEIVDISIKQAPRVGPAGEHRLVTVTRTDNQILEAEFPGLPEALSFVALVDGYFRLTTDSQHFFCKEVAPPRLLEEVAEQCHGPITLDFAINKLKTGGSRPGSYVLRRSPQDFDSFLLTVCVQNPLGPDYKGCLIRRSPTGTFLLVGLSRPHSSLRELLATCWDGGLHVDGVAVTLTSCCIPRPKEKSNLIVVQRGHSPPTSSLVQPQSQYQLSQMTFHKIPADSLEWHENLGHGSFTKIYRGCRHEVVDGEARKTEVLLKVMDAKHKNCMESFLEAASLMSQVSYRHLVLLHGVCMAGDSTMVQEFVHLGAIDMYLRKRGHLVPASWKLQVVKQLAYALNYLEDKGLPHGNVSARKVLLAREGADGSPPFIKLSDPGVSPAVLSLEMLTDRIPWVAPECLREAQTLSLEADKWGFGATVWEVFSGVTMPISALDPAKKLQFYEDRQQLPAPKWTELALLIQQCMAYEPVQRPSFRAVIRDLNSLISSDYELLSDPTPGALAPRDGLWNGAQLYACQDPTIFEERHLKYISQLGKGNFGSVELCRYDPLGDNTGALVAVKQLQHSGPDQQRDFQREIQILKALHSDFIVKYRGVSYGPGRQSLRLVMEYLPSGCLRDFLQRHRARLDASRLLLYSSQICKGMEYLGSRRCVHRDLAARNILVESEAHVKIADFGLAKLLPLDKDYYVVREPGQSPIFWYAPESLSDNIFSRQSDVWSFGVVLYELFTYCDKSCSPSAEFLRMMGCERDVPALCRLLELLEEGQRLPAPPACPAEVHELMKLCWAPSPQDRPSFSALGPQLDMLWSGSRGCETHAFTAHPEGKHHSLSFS

[7] = biological target: T3, panel of more than 300 wild-type and mutant kinases (313 kinase panel) (Homo sapiens, UniProt P53778)
T3 sequence (P53778 1-367): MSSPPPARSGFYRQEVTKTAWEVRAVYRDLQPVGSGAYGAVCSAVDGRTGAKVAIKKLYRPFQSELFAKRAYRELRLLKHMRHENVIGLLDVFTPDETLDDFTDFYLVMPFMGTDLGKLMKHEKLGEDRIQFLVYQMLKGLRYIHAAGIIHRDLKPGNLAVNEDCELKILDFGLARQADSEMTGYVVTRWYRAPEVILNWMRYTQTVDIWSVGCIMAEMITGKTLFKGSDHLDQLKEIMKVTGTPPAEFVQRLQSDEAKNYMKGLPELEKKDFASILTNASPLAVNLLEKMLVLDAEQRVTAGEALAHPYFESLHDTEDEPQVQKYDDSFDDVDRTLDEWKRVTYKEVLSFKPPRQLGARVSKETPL

[8] = biological target: panel of more than 300 wild-type and mutant kinases (313 kinase panel) (Homo sapiens, UniProt P11362)
panel of more than 300 wild-type and mutant kinases (313 kinase panel) (Homo sapiens, UniProt P11362), sequence (P11362 22-822, change not shown): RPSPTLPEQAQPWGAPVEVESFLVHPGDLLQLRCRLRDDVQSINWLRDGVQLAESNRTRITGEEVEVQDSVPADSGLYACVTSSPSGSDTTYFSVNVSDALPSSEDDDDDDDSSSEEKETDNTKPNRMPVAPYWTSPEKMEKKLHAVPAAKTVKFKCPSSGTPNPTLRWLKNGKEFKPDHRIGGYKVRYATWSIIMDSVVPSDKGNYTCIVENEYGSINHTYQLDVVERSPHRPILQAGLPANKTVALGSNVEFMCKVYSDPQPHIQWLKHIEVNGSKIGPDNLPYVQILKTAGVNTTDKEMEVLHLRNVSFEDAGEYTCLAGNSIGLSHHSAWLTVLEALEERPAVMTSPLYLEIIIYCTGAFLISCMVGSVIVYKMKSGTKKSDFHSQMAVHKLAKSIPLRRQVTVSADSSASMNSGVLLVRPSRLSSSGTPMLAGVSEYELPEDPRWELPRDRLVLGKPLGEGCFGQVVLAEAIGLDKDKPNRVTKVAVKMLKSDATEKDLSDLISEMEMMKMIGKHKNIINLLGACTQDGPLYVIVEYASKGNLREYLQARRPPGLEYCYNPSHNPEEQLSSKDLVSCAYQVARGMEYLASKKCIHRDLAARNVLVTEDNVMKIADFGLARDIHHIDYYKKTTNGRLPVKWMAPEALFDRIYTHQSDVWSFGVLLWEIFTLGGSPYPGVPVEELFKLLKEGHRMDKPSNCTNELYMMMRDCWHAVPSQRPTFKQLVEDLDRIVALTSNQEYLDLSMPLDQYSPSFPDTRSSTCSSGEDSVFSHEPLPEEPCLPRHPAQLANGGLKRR

[9] = biological target: panel of more than 300 wild-type and mutant kinases (313 kinase panel) (Homo sapiens, UniProt Q14680)

Compound | %-inhibition of PKCβ1 ([1]; kinase PKCβ1, 1 μM) | %-inhibition of RET(Y791F) ([2]; kinase RET(Y791F), 1 μM) | %-inhibition of FGR ([3]; kinase FGR, compound at 1 μM) | %-inhibition of FER ([4]; kinase FER, compound at 1 μM) | %-inhibition of TXK ([5]; kinase TXK, compound at 1 μM) | %-inhibition of JAK3 ([6]; kinase JAK3, compound at 1 μM) | %-inhibition of p38γ ([7]; kinase p38γ, 1 μM) | %-inhibition of FGFR1 ([8]; kinase FGFR1, compound at 1 μM) | %-inhibition of MELK ([9]; kinase MELK, compound at 1 μM) | %-inhibition of PKCβ1 ([1]; 1 µM) | %-inhibition of RET(Y791F) ([2]; 1 µM) | %-inhibition of FGR ([3]; 1 µM) | %-inhibition of FGFR1 ([8]; 1 µM) | %-inhibition of FER ([4]; 1 µM) | %-inhibition of JAK3 ([6]; 1 µM) | %-inhibition of p38γ ([7]; 1 µM) | %-inhibition of MELK ([9]; 1 µM) | %-inhibition of TXK ([5]; 1 µM)
COc1cc(Nc2c(C#N)cnc3cc(OCCCN4CCN(C)CC4)c(OC)cc23)c(Cl)cc1Cl [bosutinib] | 3.68% | 93% | 92% | 89% | 72% | 67% | -6% |  |  |  |  |  |  |  |  |  |  | 
COc1cc2nccc(Oc3ccc(NC(=O)C4(C(=O)Nc5ccc(F)cc5)CC4)cc3)c2cc1OC [cabozantinib] | 1.48% |  | 94% |  | 18% | 2.34% | 23% | 16% | 54% |  |  |  |  |  |  |  |  | 
C[C@@H](Oc1cc(-c2cnn(C3CCNCC3)c2)cnc1N)c1c(Cl)ccc(F)c1Cl [crizotinib] | -3% |  | 70% |  | 39% | 77% |  | 17% | 5.47% |  |  |  |  |  |  |  |  | 
CC(C)(C)c1nc(-c2cccc(NS(=O)(=O)c3c(F)cccc3F)c2F)c(-c2ccnc(N)n2)s1 [dabrafenib] |  | 36% | 82% | 22% | 18% | 22% | 0.311% | 10% | 82% |  |  |  |  |  |  |  |  | 
C#Cc1cccc(Nc2ncnc3cc(OCCOC)c(OCCOC)cc23)c1 [erlotinib] |  |  |  |  |  |  |  |  |  | 6% | 70% | 29% | 24% | 4.42% | 55% | 4.5% | 2.69% | 
CO[C@H]1C[C@@H]2CC[C@@H](C)[C@@](O)(O2)C(=O)C(=O)N2CCCC[C@H]2C(=O)O[C@H]([C@H](C)C[C@@H]2CC[C@@H](OCCO)[C@H](OC)C2)CC(=O)[C@H](C)/C=C(\C)[C@@H](O)[C@@H](OC)C(=O)[C@H](C)C[C@H](C)/C=C/C=C/C=C/1C [everolimus] | 29% | -3.57% | 1% | -0.138% | -4.36% | -4.43% | -7% | -8% | -3.33% |  |  |  |  |  |  |  |  | 
O=S(=O)(c1cccc2cnccc12)N1CCCNCC1 [fasudil] | 16% | 1% | -4.71% | -3% | 1% | 4.46% | 1.68% | -0.145% | 25% |  |  |  |  |  |  |  |  | 
CS(=O)(=O)CCNCc1ccc(-c2ccc3ncnc(Nc4ccc(OCc5cccc(F)c5)c(Cl)c4)c3c2)o1 [lapatinib] | -6% |  | 10% | 3% |  | -6% | -1.19% | -0.636% | -3.71% |  | -5% |  |  |  |  |  |  | 0.699%
Cc1ccc(Nc2nccc(N(C)c3ccc4c(C)n(C)nc4c3)n2)cc1S(N)(=O)=O [pazopanib] | -4.7% | 94% | 86% | 81% | 52% | 38% | -5% |  | -0.665% |  |  |  |  |  |  |  |  | 
Cc1ccc(C(=O)Nc2ccc(CN3CCN(C)CC3)c(C(F)(F)F)c2)cc1C#Cc1cnc2cccnn12 [ponatinib] | -5.61% | 102% | 101% | 89% | 98% | 98% | 86% | 101% |  |  |  |  |  |  |  |  |  | 
CNC(=O)c1cc(Oc2ccc(NC(=O)Nc3ccc(Cl)c(C(F)(F)F)c3)c(F)c2)ccn1 [regorafenib] | -7% |  | 56% | -2% | -2.18% | 31% | 16% |  | -4.52% |  | 102% |  |  |  |  |  |  | 
N#CC[C@H](C1CCCC1)n1cc(-c2ncnc3[nH]ccc23)cn1 [ruxolitinib] | 1.35% |  |  | 33% | 10% |  | -2.39% | 24% | 34% |  |  | 10% |  |  |  |  |  | 
CCN(CC)CCNC(=O)c1c(C)[nH]c(/C=C2\C(=O)Nc3ccc(F)cc32)c1C [sunitinib] |  |  |  |  |  |  |  |  | 95% |  |  |  |  |  |  |  |  | 
COc1cc2c(Nc3ccc(Br)cc3F)ncnc2cc1OCC1CCN(C)CC1 [vandetanib] | -6% |  | 86% | 2.48% | 60% | 2.34% | -3.79% |  | 1.19% |  |  |  |  |  |  |  |  | 
